Experimental data from US12234237B2, “Folate salts” (priority 2018, dated 2025).

Assay: Solubility of the folate salt in organic (apolar) solvents at 20° C.
Conditions: based on total weight of the solution
Method: Solubility has been determined at 20° C. Apolar solvents or mixtures thereof are for instance glycerol, methanol, ethanol, 1-propanol, 2-propanol and dimethylsulfoxid (DMSO). Apolar solvents are understood as dry solvents, that is without any water content. Apolar solvents may be pure solvents, comprising only one type of apolar solvent or it may be a mixture of at least two of the aforementioned apolar solvents. Polarity is in comparison to the polarity of water.
A high degree of crystallinity means that the crystalline content of the folate salt is higher than 40% based on the total amount of the folate salt.

Structure (SMILES) | Solubility in 1-Propanol | Solubility in DMSO | Solubility in Ethanol | Solubility in Glycerol | Solubility in Methanol
CC(C)(N)CO.CC(C)(N)CO.CN1c2c(nc(N)[nH]c2=O)NC[C@@H]1CNc1ccc(C(=O)N[C@@H](CCC(=O)O)C(=O)O)cc1 [L-MTHF di AMP, 5-Methyl-(6S)-tetrahydrofolic acid di 2-Amino-2-methyl propanol salt] | 0.1 % w/w | 23.1 % w/w | 0.1 % w/w | 16.7 % w/w | 11.2 % w/w
CN(C)CCO.CN1c2c(nc(N)[nH]c2=O)NC[C@@H]1CNc1ccc(C(=O)N[C@@H](CCC(=O)O)C(=O)O)cc1 [L-MTHF mono deanol, 5-Methyl-(6S)-tetrahydrofolic Acid Mono 2-Dimethylaminoethanol Salt] | 0.2 % w/w | 24.8 % w/w | 0.2 % w/w | 10.0 % w/w | 2.5 % w/w
CN1c2c(nc(N)[nH]c2=O)NC[C@@H]1CNc1ccc(C(=O)N[C@@H](CCC(=O)O)C(=O)O)cc1.CNCCO.CNCCO [L-MTHF di NMAE, 5-Methyl-(6S)-tetrahydrofolic acid di N-methylaminoethanol salt] | 0.1 % w/w | 3.5 % w/w | 0.2 % w/w | 16.7 % w/w | 3.6 % w/w
